Experimental data published in PubChem BioAssay AID1259407 (Chemical Carcinogenesis Research Information System (CCRIS), 2018).
Active and inactive are the calls of the source. How the calls were made is not given here.

Tested on: CCRIS mutagenicity, Ames/micronucleus/aberration tests
Assay: CCRIS mutagenicity studies
[1] = Test System: AMES SALMONELLA TYPHIMURIUM, Strain/Indicator: TA98, Metabolic Activation: NONE, Method: PREINCUBATION
[2] = Test System: AMES SALMONELLA TYPHIMURIUM, Strain/Indicator: TA100, Metabolic Activation: NONE, Method: PREINCUBATION
[3] = Test System: AMES SALMONELLA TYPHIMURIUM, Strain/Indicator: TA1535, Metabolic Activation: NONE, Method: PREINCUBATION
[4] = Test System: AMES SALMONELLA TYPHIMURIUM, Strain/Indicator: TA1537, Metabolic Activation: NONE, Method: PREINCUBATION
[5] = Test System: AMES SALMONELLA TYPHIMURIUM, Strain/Indicator: TA98, Metabolic Activation: NONE, Method: STANDARD PLATE
[6] = Test System: AMES SALMONELLA TYPHIMURIUM, Strain/Indicator: TA100, Metabolic Activation: NONE, Method: STANDARD PLATE

With `CC(=O)C(C)O` (stereo not given) the mutagenic call [1] was “inactive; negative”, the mutagenic call (Test System: AMES SALMONELLA TYPHIMURIUM, Strain/Indicator: TA98, Metabolic Activation: RAT, LIVER, S-9, AROCLOR 1254, Method: PREINCUBATION) was “inactive; negative” and the mutagenic call [2] was “inactive; negative”. The mutagenic call (Test System: AMES SALMONELLA TYPHIMURIUM, Strain/Indicator: TA100, Metabolic Activation: RAT, LIVER, S-9, AROCLOR 1254, Method: PREINCUBATION) was “inactive; negative”, the mutagenic call (Test System: AMES SALMONELLA TYPHIMURIUM, Strain/Indicator: TA102, Metabolic Activation: NONE, Method: PREINCUBATION) was “inactive; negative” and the mutagenic call (Test System: AMES SALMONELLA TYPHIMURIUM, Strain/Indicator: TA102, Metabolic Activation: RAT, LIVER, S-9, AROCLOR 1254, Method: PREINCUBATION) was “inactive; negative”. For the same compound, the mutagenic call [3] was “inactive; negative”, the mutagenic call [4] was “inactive; negative” and the mutagenic call (Test System: AMES SALMONELLA TYPHIMURIUM, Strain/Indicator: TA1538, Metabolic Activation: NONE, Method: PREINCUBATION) was “inactive; negative”. For the same compound, the mutagenic call (Test System: E. COLI, Strain/Indicator: WP2 UVRA, Metabolic Activation: NONE, Method: PREINCUBATION) was “inactive; negative”.

For `COC(=O)CCCN(N=O)C(N)=O`, the mutagenic call (Test System: E. COLI B, Strain/Indicator: H/R30R, Metabolic Activation: NONE) was “active; positive” and the mutagenic call (Test System: E. COLI B, Strain/Indicator: HS30R, Metabolic Activation: NONE) was “active; positive”.

For `CC(C)(c1cc(Br)c(O)c(Br)c1)c1cc(Br)c(O)c(Br)c1`, the mutagenic call (Test System: AMES SALMONELLA TYPHIMURIUM, Strain/Indicator: TA98, Metabolic Activation: HAMSTER, LIVER, S-9, AROCLOR 1254 (10%), Method: PREINCUBATION) was “inactive; negative”, the mutagenic call [1] was “inactive; negative” and the mutagenic call (Test System: AMES SALMONELLA TYPHIMURIUM, Strain/Indicator: TA98, Metabolic Activation: RAT, LIVER, S-9, AROCLOR 1254 (10%), Method: PREINCUBATION) was “inactive; negative”. For the same compound, the mutagenic call (Test System: AMES SALMONELLA TYPHIMURIUM, Strain/Indicator: TA100, Metabolic Activation: HAMSTER, LIVER, S-9, AROCLOR 1254 (10%), Method: PREINCUBATION) was “inactive; negative”, the mutagenic call [2] was “inactive; negative” and the mutagenic call (Test System: AMES SALMONELLA TYPHIMURIUM, Strain/Indicator: TA100, Metabolic Activation: RAT, LIVER, S-9, AROCLOR 1254 (10%), Method: PREINCUBATION) was “inactive; negative”. The mutagenic call (Test System: AMES SALMONELLA TYPHIMURIUM, Strain/Indicator: TA1535, Metabolic Activation: HAMSTER, LIVER, S-9, AROCLOR 1254 (10%), Method: PREINCUBATION) was “inactive; negative”, the mutagenic call [3] was “inactive; negative” and the mutagenic call (Test System: AMES SALMONELLA TYPHIMURIUM, Strain/Indicator: TA1535, Metabolic Activation: RAT, LIVER, S-9, AROCLOR 1254 (10%), Method: PREINCUBATION) was “inactive; negative”. For the same compound, the mutagenic call (Test System: AMES SALMONELLA TYPHIMURIUM, Strain/Indicator: TA1537, Metabolic Activation: HAMSTER, LIVER, S-9, AROCLOR 1254 (10%), Method: PREINCUBATION) was “inactive; negative”, the mutagenic call [4] was “inactive; negative” and the mutagenic call (Test System: AMES SALMONELLA TYPHIMURIUM, Strain/Indicator: TA1537, Metabolic Activation: RAT, LIVER, S-9, AROCLOR 1254 (10%), Method: PREINCUBATION) was “inactive; negative”.

In the case of `CN(C)CCCNc1c2ccccc2nc2c(N(CCO)CCO)ccc([N+](=O)[O-])c12`, the mutagenic call [5] is reported as “active; positive” and the mutagenic call [6] is reported as “active; positive”.

For `C=C[Si](C)(Cl)Cl`, the mutagenic call (Test System: AMES SALMONELLA TYPHIMURIUM, Strain/Indicator: TA98, Metabolic Activation: HAMSTER, LIVER, S-9, AROCLOR 1254 (10%), Method: STANDARD PLATE) was “inactive; negative”, the mutagenic call [5] was “inactive; negative” and the mutagenic call (Test System: AMES SALMONELLA TYPHIMURIUM, Strain/Indicator: TA98, Metabolic Activation: RAT, LIVER, S-9, AROCLOR 1254 (10%), Method: STANDARD PLATE) was “inactive; negative”. For the same compound, the mutagenic call (Test System: AMES SALMONELLA TYPHIMURIUM, Strain/Indicator: TA100, Metabolic Activation: HAMSTER, LIVER, S-9, AROCLOR 1254 (10%), Method: STANDARD PLATE) was “inactive; negative”, the mutagenic call [6] was “inactive; negative” and the mutagenic call (Test System: AMES SALMONELLA TYPHIMURIUM, Strain/Indicator: TA100, Metabolic Activation: RAT, LIVER, S-9, AROCLOR 1254 (10%), Method: STANDARD PLATE) was “inactive; negative”. The mutagenic call (Test System: AMES SALMONELLA TYPHIMURIUM, Strain/Indicator: TA1535, Metabolic Activation: HAMSTER, LIVER, S-9, AROCLOR 1254 (10%), Method: STANDARD PLATE) was “active; positive”, the mutagenic call (Test System: AMES SALMONELLA TYPHIMURIUM, Strain/Indicator: TA1535, Metabolic Activation: NONE, Method: STANDARD PLATE) was “inactive; negative” and the mutagenic call (Test System: AMES SALMONELLA TYPHIMURIUM, Strain/Indicator: TA1535, Metabolic Activation: RAT, LIVER, S-9, AROCLOR 1254 (10%), Method: STANDARD PLATE) was “inactive; negative”. For the same compound, the mutagenic call (Test System: AMES SALMONELLA TYPHIMURIUM, Strain/Indicator: TA1537, Metabolic Activation: HAMSTER, LIVER, S-9, AROCLOR 1254 (10%), Method: STANDARD PLATE) was “inactive; negative”, the mutagenic call (Test System: AMES SALMONELLA TYPHIMURIUM, Strain/Indicator: TA1537, Metabolic Activation: NONE, Method: STANDARD PLATE) was “inactive; negative” and the mutagenic call (Test System: AMES SALMONELLA TYPHIMURIUM, Strain/Indicator: TA1537, Metabolic Activation: RAT, LIVER, S-9, AROCLOR 1254 (10%), Method: STANDARD PLATE) was “inactive; negative”. The mutagenic call (Test System: AMES SALMONELLA TYPHIMURIUM, Strain/Indicator: TA1538, Metabolic Activation: HAMSTER, LIVER, S-9, AROCLOR 1254 (10%), Method: STANDARD PLATE) was “inactive; negative”, the mutagenic call (Test System: AMES SALMONELLA TYPHIMURIUM, Strain/Indicator: TA1538, Metabolic Activation: NONE, Method: STANDARD PLATE) was “inactive; negative” and the mutagenic call (Test System: AMES SALMONELLA TYPHIMURIUM, Strain/Indicator: TA1538, Metabolic Activation: RAT, LIVER, S-9, AROCLOR 1254 (10%), Method: STANDARD PLATE) was “inactive; negative”. The mutagenic call (Test System: MOUSE LYMPHOMA, Strain/Indicator: L5178Y (TK+/TK-), Metabolic Activation: NONE, Method: SUSPENSION/PLATE) was “inactive; negative. reevaluation of results: negative” and the mutagenic call (Test System: MOUSE LYMPHOMA, Strain/Indicator: L5178Y (TK+/TK-), Metabolic Activation: RAT, LIVER, S-9, AROCLOR 1254, Method: SUSPENSION/PLATE) was “inactive; negative. reevaluation of results: inconclusive”.

With `Cc1c(C)c2c(c(C)c1OC(=O)CCC(=O)O)CC[C@@](C)(CCC[C@H](C)CCC[C@H](C)CCCC(C)C)O2` the mutagenic call (Test System: AMES SALMONELLA TYPHIMURIUM, Strain/Indicator: TA97, Metabolic Activation: HAMSTER, LIVER, S-9, AROCLOR 1254 (10 OR 30%), Method: PREINCUBATION) was “inactive; negative”, the mutagenic call (Test System: AMES SALMONELLA TYPHIMURIUM, Strain/Indicator: TA97, Metabolic Activation: NONE, Method: PREINCUBATION) was “inactive; negative” and the mutagenic call (Test System: AMES SALMONELLA TYPHIMURIUM, Strain/Indicator: TA97, Metabolic Activation: RAT, LIVER, S-9, AROCLOR 1254 (10 OR 30%), Method: PREINCUBATION) was “inactive; negative”. The mutagenic call (Test System: AMES SALMONELLA TYPHIMURIUM, Strain/Indicator: TA98, Metabolic Activation: HAMSTER, LIVER, S-9, AROCLOR 1254 (10 OR 30%), Method: PREINCUBATION) was “inactive; negative”, the mutagenic call [1] was “inactive; negative” and the mutagenic call (Test System: AMES SALMONELLA TYPHIMURIUM, Strain/Indicator: TA98, Metabolic Activation: RAT, LIVER, S-9, AROCLOR 1254 (10 OR 30%), Method: PREINCUBATION) was “inactive; negative”. The mutagenic call (Test System: AMES SALMONELLA TYPHIMURIUM, Strain/Indicator: TA100, Metabolic Activation: HAMSTER, LIVER, S-9, AROCLOR 1254 (10 OR 30%), Method: PREINCUBATION) was “inactive; negative”, the mutagenic call [2] was “inactive; negative” and the mutagenic call (Test System: AMES SALMONELLA TYPHIMURIUM, Strain/Indicator: TA100, Metabolic Activation: RAT, LIVER, S-9, AROCLOR 1254 (10 OR 30%), Method: PREINCUBATION) was “inactive; negative”. The mutagenic call (Test System: AMES SALMONELLA TYPHIMURIUM, Strain/Indicator: TA1535, Metabolic Activation: HAMSTER, LIVER, S-9, AROCLOR 1254 (10 OR 30%), Method: PREINCUBATION) was “inactive; negative”, the mutagenic call [3] was “inactive; negative” and the mutagenic call (Test System: AMES SALMONELLA TYPHIMURIUM, Strain/Indicator: TA1535, Metabolic Activation: RAT, LIVER, S-9, AROCLOR 1254 (10 OR 30%), Method: PREINCUBATION) was “inactive; negative”.
